Target: cholinesterases (rat brain homogenate)
Test: In vitro anticholinesterase inhibition test (rat brain homogenate, acetylcholine iodide substrate, automatic titration)
Type: biochemical
Settings: anticholinesterase activity in vitro; for IC50: rat brain homogenate, substrate acetylcholine iodide; for HillSlope: nonlinear regression (GraphPad Prism)
Description: In vitro inhibition test was conducted as described earlier. Solutions of the prepared Fe(L1)](ttcH2)(ClO4)·EtOH·H2O (1), [Mn3(phen)6(ttc)](ClO4)3 (2), and Ni2(L2)(ttcH)(ClO4)2·6H2O·EtOH (3) complexes of appropriate concentrations (concentration range from 10^−7 to 10^−1 M; 500 µL) were added to the suspension of rat brain homogenate (10 w/v in distilled water; 500 µL), solution of sodium chloride (3 M; 2.5 mL) and water (20 mL). Subsequently, a solution of acetylcholine iodide (0.02 M; 2.0 mL) was added (=starting of the enzyme reaction). The enzyme activity was immediately determined using of automatic titrator RTS 822 (Radiometer, Bronshoj, Denmark). The IC50 values were calculated from a plot of percent inhibition of cholinesterases versus its concentration. […] Nonlinear regression was performed using software for statistical analysis GraphPad Prism version 4 for Windows (GraphPad Software, San Diego, CA, USA; www.graphpad.com).

| Compound | IC50 [mM] | HillSlope |
| --- | --- | --- |
| O=S(=O)([O-])[O-].[Fe+2] [FeSO4, reference compound] | > 1 | – |
| O=S(=O)([O-])[O-].[Mn+2] [MnSO4, reference compound] | > 1 | – |
| O=S(=O)([O-])[O-].[Ni+2] [NiSO4, reference compound] | 12.9 | −0.3920 |
| [Mn3(phen)6(ttc)](ClO4)3 [compound 2] | 0.0334 | 0.2280 |
